Consider four compounds from patent US6239151A, “Compounds as inhibitor of tumor necrosis factor alpha release” (Hoffmann-La Roche Inc., priority 1998, dated 2001).

Molecules are shown by their SMILES.

For this test, the system named is LPS-induced TNF-α release (THP1 cells). The test can be described thus: Inhibition of LPS-induced TNF-α release from THP1 cells (ELISA). The settings on record: Homo sapiens, THP-1, LPS 2 mg/ml, 3 hours at 37° C., TNF-α by ELISA, read-out: IC50 (concentration giving 50% inhibition of LPS-induced TNF-α release). It counts as cell-based. The method, then: THP1 cells were cultivated in RPMI 1640 medium supplemented with antibiotics and 10% foetal calf serum, harvested by centrifugation and diluted to 5×10^5 cells/ml in the above medium supplemented with 20 mM HEPES buffer. Aliquots ([…]) of the cell suspension were plated out on 96 well culture plates and incubated for 0.5 hour at 37° C. prior to the addition of the test compounds. The latter were dissolved in dimethyl sulphoxide (DMSO) to a stock concentration of 1.2 mM which was diluted with phosphate buffered saline/10% DMSO solution to provide test compounds in final concentrations of 10^-9 to 10^-5 M, with each concentration being tested in duplicate. The cells were incubated with the test compounds for 0.5 hour at 37° C., LPS (bacterial lipopolysaccharide) was then added to a concentration of 2 mg/ml and incubation was continued for 3 hours at 37° C. in an atmosphere containing 5% CO2 and at 95% relative humidity. After centrifugation at 260 g for 10 minutes an aliquot of each supernatant was removed and the amount of TNF-α was estimated by ELISA (R & D Systems Europe Ltd., Abingdon, England). The concentration of test compound which brings about 50% inhibition of LPS-induced TNF-α release (IC50) was computed from the dose-response curve.
The results obtained in the foregoing test with representative compounds of formula I are compiled in the following Table.
Take `CC(C)C[C@@H](C(=O)NN(CC(C)C)C(=O)C1CCNCC1)[C@H](C/C=C/c1ccccc1)C(=O)NO` [D, (E)-2(R)-[1(S)-(Hydroxycarbamoyl)-4-phenyl-3-butenyl]-2'-isobutyl-4-methyl-2'-[(4-piperidinyl)carbonyl]valerohydrazide]: the IC50 came out at 345 nM.

With `CC(C)C[C@@H](C(=O)NN(CC(C)C)C(=O)[C@@H](C)N)[C@H](C/C=C/c1ccccc1)C(=O)NO` [A, (E)-2'-(D-Alanyl)-2(R)-[1(S)-(hydroxycarbamoyl)-4-phenyl-3-butenyl]-2'-isobutyl-4-methylvalerohydrazide], the IC50 was 303 nM.

As for `CC(C)C[C@@H](C(=O)NN(CC(C)C)C(=O)C(C)O)[C@H](C/C=C/c1ccccc1)C(=O)NO` (mixture of isomers) [B, (E)-2(R)-[1(S)-(Hydroxycarbamoyl)-4-phenyl-3-butenyl]-2'-(2(RS)-hydroxypropionyl)-2'-isobutyl-4-methylvalerohydrazide], the IC50 amounted to 589 nM.

With `CC(C)C[C@@H](C(=O)NN(CC(C)C)C(=O)Cn1ccnc1)[C@H](C/C=C/c1ccccc1)C(=O)NO` [C, (E)-2(R)-[1(S)-(Hydroxycarbamoyl)-4-phenyl-3-butenyl]-2'-[2-(1-imidazolyl)acetyl]-2'-isobutyl-4-methylvalerohydrazide], the IC50 worked out at 201 nM.
